These results are taken from patent publication US8580516B2, “Methods and compositions for direct detection of DNA damage” (University of Chicago, priority 2008, dated 2013).

For data set [1] the following is noted: Privat and Sowers 1996; cited from earlier work.
In another data set the test system is several cell lines. To be noted: cited from earlier work.
A further data set deals with mammalian cells. To be noted: via misincorporation and/or mispairing during replication; cited from earlier work.
A further data set deals with HL60 cells. Description: In vitro differentiation of HL60 cells to neutrophils, CD11b flow cytometry. It counts as cell-based. To be noted: 1 μM, five days, FITC anti-human CD11b flow cytometry. How it is done: HL60 cells were grown to confluence (1×10^6 cells/ml) in Roswell Park Memorial Institute media (“RPMI”) 1640 media supplemented with 10% fetal bovine serum, 1% penicillin/streptomycin and 2 mM L-glutamine at 37° C. in 5% CO2 and treated with ethanol carrier, 1 μM ATRA or 1 μM ATRA, 6 nM Vitamin D3 and 30 ng/ml G-CSF for five days.
In general terms: In flow cytometry, cells or beads pass a laser one at a time.

Structures are written as SMILES.

For `O=Cc1cn([C@H]2C[C@H](O)[C@@H](CO)O2)c(=O)[nH]c1=O` [5-FodU, 5-formyldeoxyuridine], the pKa (as a rule, the negative logarithm of the acid dissociation constant) in data set [1] is given as 6.8. Moreover, the IC50 (as a rule, the concentration that inhibits the measured activity by half) with several cell lines (5-FodU fed to tissue culture cells, several cell lines, read-out: IC50 (toxicity)) was around 1 µM. Further, in the data set with several cell lines (cells lacking thymidine kinase or thymidylate synthetase), the “toxicity in cells lacking thymidine kinase or thymidylate synthetase” value was “lost”.

For the compound `O=Cc1cn([C@H]2C[C@H](O)[C@@H](COP(=O)(O)OP(=O)(O)OP(=O)(O)O)O2)c(=O)[nH]c1=O` [5-FodUTP, 5-formyl deoxyuridine triphosphate], the “mutations induced in cells” value with mammalian cells was “induces both transition and transversion mutations”.

As for `CC1=C(/C=C/C(C)=C/C=C/C(C)=C/C(=O)O)C(C)(C)CCC1` [ATRA, all-trans retinoic acid], the “expression of CD11b” value with HL60 cells is given as “increased expression of CD11b”.

`O=c1ccn([C@@H]2O[C@H](CO)[C@@H](O)[C@H]2O)c(=O)[nH]1` [uridine]: in data set [1], the pKa was 9.4.
